# Laboratory results taken from US20080214606A1, “Methods for the Identification and Use of Compounds Suitable for the Treatment of Drug Resistant Cancer Cells” (The Government of the United States of America as …, priority 2004, published 2008).
# What was measured:
# ABCB1 = ABCB1 (Homo sapiens, UniProt P08183); experiment: Correlation of ABCB1 expression with drug sensitivity across the NCI-60
# Outline: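 SYBR Green real-time RT-PCR on 150 ng total RNA with 250 nM primers: RT 20 min at 50 °C, then 45 cycles; expression taken as crossing-point cycle number. Correlated with drug sensitivity of 1429 compounds across the cell panel; permutation p-values with step-down and step-up (FDR q-value) multiple-testing correction.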
# ABCC7 = molecular target: T1, ABCC7 (Homo sapiens, UniProt P13569); experiment: Correlation of ABCC7 expression with drug sensitivity across the NCI-60; type: cell-based; conditions: Pearson correlation of ABCC7 expression with sensitivity of the 60 cell lines; 1429 compounds; inverse, p < 0.0001
# T1 construct: profiled in 60 diverse cancer cell lines (the NCI-60) using real-time RT-PCR; endogenous in cells; host or cells: NCI-60 human cancer cell lines
# Method: (§1) Expression levels are measured by real-time quantitative RT-PCR using the LightCycler RNA Amplification SYBR Green kit and a LightCycler machine (Roche Biochemicals, Indianapolis, Ind.). […] When possible, the amplicons are designed to encompass exon-intron boundaries to avoid amplification of genomic DNA. Since the Syber Green assay detects accumulation of double stranded DNA, primers are selected (from a battery consisting of about 200 primers) that amplified a single product of the correct size.
# (§2) RT-PCR is carried out on 150 ng total RNA, in the presence of 250 nM specific primers. Following reverse transcription (20 min at 50° C.), the PCR reaction consists of 45 cycles of denaturation (15 sec at 95° C.), annealing (30 sec at 58° C.), and elongation (30 sec at 72° C.). No-template (water) reaction mixtures are prepared as negative controls.
# (§3) During PCR amplification, fluorescence emission is measured and recorded in real time by the LightCycler. Crossing point values are calculated, using the LightCycler software package, by the Fit Points analysis method, with baseline fluorescence set at 1. The SyberGreen assay measures accumulation of double-stranded products, and the appearance of primer dimers limits quantitation at high cycle numbers. The specificity of amplified products is verified by melting-curve analysis and agarose gel electrophoresis (not shown). The raw results are expressed as number of cycles to reach the crossing point. If the desired product is not detected, the corresponding value is adjusted to crossing points indicating no expression. To assess the contribution of experimental artifacts, selected cell lines are assessed in replicate.
# (§4) The two are combined to form a joint dataset that includes 1429 compounds.
# (§5) To determine quantitatively how well the 47 genes cluster the cell lines by their tissues of origin, a statistical method is employed wherein the kappa statistic is used to indicate how well the observed clusters correspond to the nine tissue-of-origin classifications. […] To control the overall false type 1 error rate, both a step-down procedure (Westfall and Young, 1993, Resampling-Based Multiple Testing: Examples and Methods for p-value Adjustment (New York: Wiley)) and a step-up procedure (Reiner et al., 2003, Bioinformatics 19:368-375) were employed to adjust for multiple testing of all 47 genes simultaneously. In the Benjamini-Hochberg procedure the p-values are computed in the standard way by permutation, assuming that all distributions are exchangeable: the number of values in the permuted data with correlations over a threshold, divided by the number of compounds and by the number of permutations. In this analysis, the False Discovery Rate (q-value) at which each compound would be declared was calculated using the step-up procedure for positively correlated test statistics (again true because all correlations being compared are computed against the same ABC gene): in this procedure the first q-value for the largest correlation is the Bonferroni-corrected p-value for that gene; then further q-values are calculated as qj=max(pj*1429/j, qj-1). This procedure limits the expected proportion of false positives in the list 1, . . . , j to at most qj.
# ABCC1 = molecular target: T2, ABCC1 (Homo sapiens, UniProt P33527); experiment: Correlation of ABCC1 expression with drug sensitivity across the NCI-60; type: cell-based; conditions: Pearson correlation of ABCC1 expression with sensitivity of the 60 cell lines; 1429 compounds; inverse, p < 0.0001
# T2 construct: profiled in 60 diverse cancer cell lines (the NCI-60) using real-time RT-PCR; endogenous in cells; host or cells: NCI-60 human cancer cell lines
# Method: as §1, §2, §3, §4
# (§6) In the Benjamini-Hochberg procedure the p-values are computed in the standard way by permutation, assuming that all distributions are exchangeable: the number of values in the permuted data with correlations over a threshold, divided by the number of compounds and by the number of permutations. In this analysis, the False Discovery Rate (q-value) at which each compound would be declared was calculated using the step-up procedure for positively correlated test statistics (again true because all correlations being compared are computed against the same ABC gene): in this procedure the first q-value for the largest correlation is the Bonferroni-corrected p-value for that gene; then further q-values are calculated as qj=max(pj*1429/j, qj-1). This procedure limits the expected proportion of false positives in the list 1, . . . , j to at most qj.
# ABCC3 = molecular target: T3, ABCC3 (Homo sapiens, UniProt O15438); experiment: Correlation of ABCC3 expression with drug sensitivity across the NCI-60; type: cell-based; conditions: Pearson correlation of ABCC3 expression with sensitivity of the 60 cell lines; 1429 compounds; inverse, p < 0.0001
# T3 construct: profiled in 60 diverse cancer cell lines (the NCI-60) using real-time RT-PCR; endogenous in cells; host or cells: NCI-60 human cancer cell lines
# Method: as §1, §2, §3, §4, §5
# ABCA1 = molecular target: T4, ABCA1 (Homo sapiens, UniProt O95477); experiment: Correlation of ABCA1 expression with drug sensitivity across the NCI-60; type: cell-based; conditions: Pearson correlation of ABCA1 expression with sensitivity of the 60 cell lines; 1429 compounds; inverse, p < 0.0001
# T4 construct: profiled in 60 diverse cancer cell lines (the NCI-60) using real-time RT-PCR; endogenous in cells; host or cells: NCI-60 human cancer cell lines
# Method: as §1, §2, §3, §4, §6
# ABCB5 = molecular target: T5, ABCB5 (Homo sapiens, UniProt Q2M3G0); experiment: Correlation of ABCB5 expression with drug sensitivity across the NCI-60; type: cell-based; conditions: Pearson correlation of ABCB5 expression with sensitivity of the 60 cell lines; 1429 compounds; inverse, p < 0.0001
# T5 construct: profiled in 60 diverse cancer cell lines (the NCI-60) using real-time RT-PCR; endogenous in cells; host or cells: NCI-60 human cancer cell lines
# T5 sequence (Q2M3G0 1-1257): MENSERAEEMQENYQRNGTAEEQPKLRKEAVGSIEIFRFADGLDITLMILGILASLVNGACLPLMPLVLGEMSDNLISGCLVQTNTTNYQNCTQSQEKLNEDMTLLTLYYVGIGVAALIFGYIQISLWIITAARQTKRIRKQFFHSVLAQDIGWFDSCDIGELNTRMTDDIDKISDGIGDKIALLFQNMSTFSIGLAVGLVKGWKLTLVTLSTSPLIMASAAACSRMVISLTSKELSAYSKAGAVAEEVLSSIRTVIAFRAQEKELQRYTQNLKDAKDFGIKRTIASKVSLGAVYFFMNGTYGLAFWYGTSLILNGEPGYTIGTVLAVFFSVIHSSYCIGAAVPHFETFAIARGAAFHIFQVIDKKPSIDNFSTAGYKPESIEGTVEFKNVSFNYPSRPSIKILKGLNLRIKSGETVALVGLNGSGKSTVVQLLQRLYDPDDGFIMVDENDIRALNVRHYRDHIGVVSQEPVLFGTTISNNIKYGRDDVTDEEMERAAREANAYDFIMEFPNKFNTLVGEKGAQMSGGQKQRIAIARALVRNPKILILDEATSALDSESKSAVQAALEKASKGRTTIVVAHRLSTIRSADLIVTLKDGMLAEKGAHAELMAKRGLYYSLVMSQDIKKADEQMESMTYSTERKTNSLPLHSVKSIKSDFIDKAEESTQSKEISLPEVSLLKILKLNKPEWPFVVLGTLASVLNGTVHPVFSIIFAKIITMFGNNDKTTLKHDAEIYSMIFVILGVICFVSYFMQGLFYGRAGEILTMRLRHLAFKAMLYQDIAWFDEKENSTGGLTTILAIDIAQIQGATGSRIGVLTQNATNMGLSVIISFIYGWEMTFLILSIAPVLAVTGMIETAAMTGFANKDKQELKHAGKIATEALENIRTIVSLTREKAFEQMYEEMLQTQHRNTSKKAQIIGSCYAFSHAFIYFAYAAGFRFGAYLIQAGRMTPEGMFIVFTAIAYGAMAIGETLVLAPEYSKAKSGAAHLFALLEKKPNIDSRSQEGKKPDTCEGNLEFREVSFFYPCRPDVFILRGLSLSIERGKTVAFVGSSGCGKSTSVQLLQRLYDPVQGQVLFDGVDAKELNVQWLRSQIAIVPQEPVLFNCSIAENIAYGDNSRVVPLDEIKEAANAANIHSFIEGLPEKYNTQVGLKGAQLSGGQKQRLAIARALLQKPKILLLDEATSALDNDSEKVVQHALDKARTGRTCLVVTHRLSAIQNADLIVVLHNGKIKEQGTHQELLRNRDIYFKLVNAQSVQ
# Method: as §1, §2, §3, §4, §6
# ABCA4 = molecular target: T6, ABCA4 (Homo sapiens, UniProt P78363); experiment: Correlation of ABCA4 expression with drug sensitivity across the NCI-60; type: cell-based; conditions: Pearson correlation of ABCA4 expression with sensitivity of the 60 cell lines; 1429 compounds; inverse, p < 0.0001
# T6 construct: profiled in 60 diverse cancer cell lines (the NCI-60) using real-time RT-PCR; endogenous in cells; host or cells: NCI-60 human cancer cell lines
# Method: (§7) Expression levels are measured by real-time quantitative RT-PCR using the LightCycler RNA Amplification SYBR Green kit and a LightCycler machine (Roche Biochemicals, Indianapolis, Ind.). Specific oligonucleotide probes are designed for each of the ABC transporters using DNAStar Primer Select (DNASTAR Inc.), and they may be synthesized at Lofstrand Laboratories (Gaithersburg, Md.). When possible, the amplicons are designed to encompass exon-intron boundaries to avoid amplification of genomic DNA. Since the Syber Green assay detects accumulation of double stranded DNA, primers are selected (from a battery consisting of about 200 primers) that amplified a single product of the correct size.
# as §2, §3, §4
# (§8) To control the overall false type 1 error rate, both a step-down procedure (Westfall and Young, 1993, Resampling-Based Multiple Testing: Examples and Methods for p-value Adjustment (New York: Wiley)) and a step-up procedure (Reiner et al., 2003, Bioinformatics 19:368-375) were employed to adjust for multiple testing of all 47 genes simultaneously. […] In this analysis, the False Discovery Rate (q-value) at which each compound would be declared was calculated using the step-up procedure for positively correlated test statistics (again true because all correlations being compared are computed against the same ABC gene): in this procedure the first q-value for the largest correlation is the Bonferroni-corrected p-value for that gene; then further q-values are calculated as qj=max(pj*1429/j, qj-1). […]
# ABCA3 = molecular target: T7, ABCA3 (Homo sapiens, UniProt Q99758); experiment: Correlation of ABCA3 expression with drug sensitivity across the NCI-60; type: cell-based; conditions: Pearson correlation of ABCA3 expression with sensitivity of the 60 cell lines; 1429 compounds; inverse, p < 0.0001
# T7 construct: profiled in 60 diverse cancer cell lines (the NCI-60) using real-time RT-PCR; endogenous in cells; host or cells: NCI-60 human cancer cell lines
# Method: as §1, §2, §3, §4, §5
# ABCA12 = molecular target: T8, ABCA12 (Homo sapiens, UniProt Q86UK0); experiment: Correlation of ABCA12 expression with drug sensitivity across the NCI-60; type: cell-based; conditions: Pearson correlation of ABCA12 expression with sensitivity of the 60 cell lines; 1429 compounds; inverse, p < 0.0001
# T8 construct: profiled in 60 diverse cancer cell lines (the NCI-60) using real-time RT-PCR; endogenous in cells; host or cells: NCI-60 human cancer cell lines
# Method: as §7, §2, §3, §4, §8
# ABCB11 = molecular target: T9, ABCB11 (Homo sapiens, UniProt O95342); experiment: Correlation of ABCB11 expression with drug sensitivity across the NCI-60; type: cell-based; conditions: Pearson correlation of ABCB11 expression with sensitivity of the 60 cell lines; 1429 compounds; inverse, p < 0.0001
# T9 construct: profiled in 60 diverse cancer cell lines (the NCI-60) using real-time RT-PCR; endogenous in cells; host or cells: NCI-60 human cancer cell lines
# Method: as §1, §2, §3, §4, §6
# T1 sequence (P13569 whole entry): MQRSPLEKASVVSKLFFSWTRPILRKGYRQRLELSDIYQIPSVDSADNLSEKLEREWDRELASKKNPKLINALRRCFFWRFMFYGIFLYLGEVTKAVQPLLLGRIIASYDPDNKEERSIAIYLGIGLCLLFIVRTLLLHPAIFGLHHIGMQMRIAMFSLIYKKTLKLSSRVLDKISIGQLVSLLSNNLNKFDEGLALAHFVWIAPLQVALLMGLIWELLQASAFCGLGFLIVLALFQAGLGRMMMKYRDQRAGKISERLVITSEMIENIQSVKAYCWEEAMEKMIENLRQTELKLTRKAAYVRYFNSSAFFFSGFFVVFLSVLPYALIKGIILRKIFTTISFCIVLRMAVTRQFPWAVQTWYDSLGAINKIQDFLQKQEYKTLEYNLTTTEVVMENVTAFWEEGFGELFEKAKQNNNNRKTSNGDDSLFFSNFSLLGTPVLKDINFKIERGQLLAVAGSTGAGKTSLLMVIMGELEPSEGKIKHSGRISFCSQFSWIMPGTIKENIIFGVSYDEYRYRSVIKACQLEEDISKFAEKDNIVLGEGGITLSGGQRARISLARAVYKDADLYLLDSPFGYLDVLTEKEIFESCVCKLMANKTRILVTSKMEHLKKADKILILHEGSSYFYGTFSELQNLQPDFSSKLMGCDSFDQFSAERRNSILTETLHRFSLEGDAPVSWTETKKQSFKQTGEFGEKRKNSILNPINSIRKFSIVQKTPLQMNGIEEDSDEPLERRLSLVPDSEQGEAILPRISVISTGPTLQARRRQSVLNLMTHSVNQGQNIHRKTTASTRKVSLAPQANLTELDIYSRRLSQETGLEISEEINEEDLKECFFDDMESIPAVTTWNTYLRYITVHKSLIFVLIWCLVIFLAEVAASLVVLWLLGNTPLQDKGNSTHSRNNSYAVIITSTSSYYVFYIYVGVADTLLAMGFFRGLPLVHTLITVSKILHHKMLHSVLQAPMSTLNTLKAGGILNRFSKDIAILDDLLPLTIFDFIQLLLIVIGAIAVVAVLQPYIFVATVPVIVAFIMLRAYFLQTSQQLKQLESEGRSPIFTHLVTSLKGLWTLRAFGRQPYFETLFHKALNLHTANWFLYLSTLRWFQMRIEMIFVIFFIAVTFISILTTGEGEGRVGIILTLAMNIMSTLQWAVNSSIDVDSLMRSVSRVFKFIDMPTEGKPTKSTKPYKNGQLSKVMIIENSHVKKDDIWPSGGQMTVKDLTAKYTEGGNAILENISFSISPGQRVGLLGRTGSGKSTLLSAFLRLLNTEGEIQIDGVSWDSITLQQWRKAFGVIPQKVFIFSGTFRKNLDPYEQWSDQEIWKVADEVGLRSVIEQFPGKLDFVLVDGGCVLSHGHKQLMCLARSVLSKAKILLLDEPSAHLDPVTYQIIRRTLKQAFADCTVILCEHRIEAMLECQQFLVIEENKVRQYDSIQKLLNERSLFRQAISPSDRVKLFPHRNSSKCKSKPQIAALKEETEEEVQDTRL
# T2 sequence (P33527 whole entry): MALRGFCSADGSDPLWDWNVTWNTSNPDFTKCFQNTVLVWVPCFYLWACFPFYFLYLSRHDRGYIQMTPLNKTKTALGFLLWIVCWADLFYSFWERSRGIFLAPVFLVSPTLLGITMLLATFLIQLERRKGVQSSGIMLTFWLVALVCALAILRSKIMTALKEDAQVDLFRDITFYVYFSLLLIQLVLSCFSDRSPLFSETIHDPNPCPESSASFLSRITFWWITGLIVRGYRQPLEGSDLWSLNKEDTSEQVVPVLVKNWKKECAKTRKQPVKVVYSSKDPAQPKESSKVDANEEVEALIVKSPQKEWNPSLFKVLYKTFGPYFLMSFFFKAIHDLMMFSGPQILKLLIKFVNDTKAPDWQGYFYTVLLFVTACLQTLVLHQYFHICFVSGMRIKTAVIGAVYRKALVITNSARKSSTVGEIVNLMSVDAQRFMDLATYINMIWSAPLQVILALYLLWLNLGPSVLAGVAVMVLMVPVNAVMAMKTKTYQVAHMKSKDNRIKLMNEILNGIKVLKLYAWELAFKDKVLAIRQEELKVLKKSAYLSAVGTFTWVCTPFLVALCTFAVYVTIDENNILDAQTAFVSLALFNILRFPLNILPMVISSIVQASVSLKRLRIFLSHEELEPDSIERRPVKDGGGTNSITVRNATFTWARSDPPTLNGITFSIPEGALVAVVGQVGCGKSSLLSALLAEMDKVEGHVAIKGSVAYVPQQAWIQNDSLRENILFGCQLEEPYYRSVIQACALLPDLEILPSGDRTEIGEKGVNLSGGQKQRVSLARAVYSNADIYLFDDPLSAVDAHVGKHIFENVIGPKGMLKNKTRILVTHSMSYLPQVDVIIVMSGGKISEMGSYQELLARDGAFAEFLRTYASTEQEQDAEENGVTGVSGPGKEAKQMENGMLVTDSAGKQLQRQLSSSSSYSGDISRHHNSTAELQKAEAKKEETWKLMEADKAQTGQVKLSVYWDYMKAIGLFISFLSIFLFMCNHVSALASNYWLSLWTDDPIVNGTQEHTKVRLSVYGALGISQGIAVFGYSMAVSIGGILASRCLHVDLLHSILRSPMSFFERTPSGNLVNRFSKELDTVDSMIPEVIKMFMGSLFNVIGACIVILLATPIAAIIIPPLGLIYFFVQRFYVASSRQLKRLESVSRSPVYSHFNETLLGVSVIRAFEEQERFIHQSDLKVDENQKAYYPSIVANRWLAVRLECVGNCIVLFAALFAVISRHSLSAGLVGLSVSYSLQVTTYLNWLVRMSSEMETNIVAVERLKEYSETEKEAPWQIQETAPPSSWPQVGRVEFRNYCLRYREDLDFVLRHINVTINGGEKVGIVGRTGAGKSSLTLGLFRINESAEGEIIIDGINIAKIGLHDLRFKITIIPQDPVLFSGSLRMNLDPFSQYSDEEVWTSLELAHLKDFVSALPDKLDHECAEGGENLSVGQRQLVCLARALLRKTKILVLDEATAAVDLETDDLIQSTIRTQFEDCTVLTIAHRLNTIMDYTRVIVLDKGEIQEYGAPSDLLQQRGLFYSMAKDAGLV
# T7 sequence (Q99758 whole entry): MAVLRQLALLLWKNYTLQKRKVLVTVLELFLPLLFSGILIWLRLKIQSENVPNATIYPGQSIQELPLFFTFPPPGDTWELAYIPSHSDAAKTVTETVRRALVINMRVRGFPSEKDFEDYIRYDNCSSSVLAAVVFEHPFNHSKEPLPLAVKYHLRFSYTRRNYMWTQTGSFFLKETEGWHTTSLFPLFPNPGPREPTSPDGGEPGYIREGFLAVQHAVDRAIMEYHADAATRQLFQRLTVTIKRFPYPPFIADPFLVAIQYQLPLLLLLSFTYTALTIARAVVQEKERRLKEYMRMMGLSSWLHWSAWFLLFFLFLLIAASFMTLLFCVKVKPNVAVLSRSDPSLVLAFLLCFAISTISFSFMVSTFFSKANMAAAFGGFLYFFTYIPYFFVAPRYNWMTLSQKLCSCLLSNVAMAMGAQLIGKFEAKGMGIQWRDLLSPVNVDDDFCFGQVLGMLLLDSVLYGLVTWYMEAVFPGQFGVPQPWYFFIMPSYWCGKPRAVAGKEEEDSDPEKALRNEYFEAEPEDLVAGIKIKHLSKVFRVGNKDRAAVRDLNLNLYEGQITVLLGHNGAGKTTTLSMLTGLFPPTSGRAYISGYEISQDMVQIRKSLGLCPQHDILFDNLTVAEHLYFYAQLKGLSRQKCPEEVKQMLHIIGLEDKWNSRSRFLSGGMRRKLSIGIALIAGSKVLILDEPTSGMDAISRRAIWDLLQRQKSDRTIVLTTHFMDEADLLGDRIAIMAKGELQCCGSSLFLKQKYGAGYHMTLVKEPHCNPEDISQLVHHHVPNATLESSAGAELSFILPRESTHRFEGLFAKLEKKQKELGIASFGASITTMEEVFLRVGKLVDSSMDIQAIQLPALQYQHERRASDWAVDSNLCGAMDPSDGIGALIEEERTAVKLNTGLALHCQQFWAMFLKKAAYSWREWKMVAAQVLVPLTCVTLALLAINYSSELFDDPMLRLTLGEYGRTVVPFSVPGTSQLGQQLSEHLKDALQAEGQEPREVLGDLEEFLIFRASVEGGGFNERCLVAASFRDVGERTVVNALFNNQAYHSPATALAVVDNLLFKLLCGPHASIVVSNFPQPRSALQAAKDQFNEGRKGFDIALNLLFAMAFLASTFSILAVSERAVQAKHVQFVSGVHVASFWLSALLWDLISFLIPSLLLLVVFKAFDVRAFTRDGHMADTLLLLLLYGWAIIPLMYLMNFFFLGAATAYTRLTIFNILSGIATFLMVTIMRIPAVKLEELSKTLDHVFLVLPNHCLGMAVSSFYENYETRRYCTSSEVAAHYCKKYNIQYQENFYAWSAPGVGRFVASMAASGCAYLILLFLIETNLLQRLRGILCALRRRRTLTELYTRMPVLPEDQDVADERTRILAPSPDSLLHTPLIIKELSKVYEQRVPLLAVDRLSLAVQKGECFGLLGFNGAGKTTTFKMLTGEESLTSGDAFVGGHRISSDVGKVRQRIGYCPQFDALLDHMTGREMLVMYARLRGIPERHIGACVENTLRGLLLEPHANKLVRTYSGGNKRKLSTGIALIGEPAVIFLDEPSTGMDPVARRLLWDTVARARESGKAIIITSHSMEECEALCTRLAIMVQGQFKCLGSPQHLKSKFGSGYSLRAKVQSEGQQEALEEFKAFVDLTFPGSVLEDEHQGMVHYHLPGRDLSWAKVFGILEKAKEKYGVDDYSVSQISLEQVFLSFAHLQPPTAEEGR
compound,measurement,setting,value
Cc1c2ccnc(-c3ccccc3)c2cc2c1[nH]c1ccccc12 [NSC 86715],Correlation of antiproliferative activity with ABCB1 expression,ABCB1,0.5323
same,Correlation,ABCC7,−0.5696
COC(=O)CCC(=O)NC1=C(Nc2ccccc2)C(=O)c2ccccc2C1=O [NSC 670762],Correlation,ABCC1,−0.4326
C=C(c1ccccc1)[C@@]1(O)CC[C@@H]1N(CC#N)Cc1ccccc1 [NSC 617644],Correlation,ABCC1,−0.5087
Cc1oc2c(c1C(=O)c1ccccc1)C(=O)c1ccccc1C2=O [NSC 641594],Correlation,ABCC1,−0.4324
same,Correlation,ABCC3,−0.4994
CC[n+]1c(/C=C/c2ccc(N(CCCl)CCCl)cc2)ccc2cc(NC(=O)/C=C/c3ccccc3)ccc21.[I-] [NSC 640085],Correlation,ABCA1,−0.3580
C=C1C(=O)O[C@H]2[C@@H](O)[C@H](C)CCC/C(C)=C/CC[C@@]3(C)O[C@@H]3C[C@@H]12 [NSC 694509],Correlation,ABCB5,−0.2924
same,Pearson's Correlation Coeff,ABCB1,0.2823
Cc1cc(C)c2c(=O)cc(-c3ccccc3)[nH]c2c1 [NSC 665925],Correlation,ABCA4,−0.4545
CC(=O)O[C@@]12CO[C@@H]1CC(O)[C@@]1(C)C(=O)[C@H](O)C3=C(C)C(O)C[C@@](O)(C(OC(=O)c4ccccc4)C12)C3(C)C (stereo partly shown) [NSC 656178],Correlation,ABCA3,−0.4318
OCC1OC(c2scc3c(=S)nc[nH]c23)C(O)C1O (stereo not shown) [NSC 670036],Correlation,ABCB5,−0.4561
CC[C@]1(O)C[C@@H]2CN(CCc3c([nH]c4ccccc34)[C@@](C(=O)OC)(c3cc4c(cc3OC)N(C)[C@H]3[C@@](O)(C(=O)OC)[C@H](OC(C)=O)[C@]5(CC)C=CCN6CC[C@]43[C@@H]65)C2)C1.O=S(=O)(O)O [NSC 49842],Correlation,ABCA3,−0.3678
CC1CSC(=S)N1C(=O)N1C(=S)SCC1C (stereo not shown) [NSC 654968],Correlation,ABCC7,−0.5519
COc1cc2c(c(OC(C)=O)c1OC(C)=O)-c1ccc(SC)c(=O)cc1C(NC(C)=O)CC2 (stereo not shown) [NSC 374979],Correlation,ABCA3,−0.4573
O=C1C=C(Nc2ccccc2C(=O)CC(=O)C(=O)Nc2cccc(C(F)(F)F)c2)c2ccccc2C1=O [NSC 644751],Correlation,ABCA12,−0.5643
same,Correlation,ABCC3,−0.5748
C=C1[C@H](OCC(C)C)[C@@H](O)[C@@H](OC(=O)c2cccnc2)C(C)(C)/C=C/[C@H](C)[C@H](OC(C)=O)[C@@]2(O)C[C@@](C)(OC(C)=O)[C@H](OC(=O)c3ccccc3)[C@@H]2[C@H]1OC(C)=O [NSC 688235],Correlation,ABCA4,−0.3557
C=CCn1c2ccccc2c2c(C)c3cnccc3c(C)c21 [NSC 150834],Correlation,ABCB11,−0.5267
CC(=O)Oc1c2ccsc2c(OC(C)=O)c2ccsc12 [NSC 695914],Correlation,ABCC7,−0.4297
Cc1c2ccnc(C(N)=O)c2c(C)c2c1[nH]c1ccccc12.Cl [NSC 335142],Correlation,ABCB11,−0.4214
O=C1C(CO)=C[C@H](O)[C@H]2O[C@@H]12 [NSC 326233],Correlation,ABCB11,−0.4430
COc1ccc(O)c2c(=O)c3c(OC)cc4c(c3oc12)[C@@H]1C=CO[C@@H]1O4 [NSC 178249],Correlation,ABCC7,−0.5603
CC1(C)C[C@]23[C@@H]4COC(=O)[C@H]2CC[C@H]1[C@@H]3CC4=O [NSC 284437],Correlation,ABCB11,−0.5273
COC(=O)CCC(=O)NC1=C(Nc2ccc(OC)cc2)C(=O)c2ccccc2C1=O [NSC 670766],Correlation,ABCC7,−0.4378
